Molecules are shown by their SMILES.

Sequence of factor Xa (P00742 235-488 limits assumed): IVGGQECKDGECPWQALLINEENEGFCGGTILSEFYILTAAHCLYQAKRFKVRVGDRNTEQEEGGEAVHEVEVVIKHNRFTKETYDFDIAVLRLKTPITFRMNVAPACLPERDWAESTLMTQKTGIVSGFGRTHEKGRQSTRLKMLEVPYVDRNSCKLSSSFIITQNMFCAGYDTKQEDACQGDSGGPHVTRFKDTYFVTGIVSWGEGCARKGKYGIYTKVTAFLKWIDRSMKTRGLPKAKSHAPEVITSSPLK
Sequence of factor Xa (P00742 41-179 partner limits assumed): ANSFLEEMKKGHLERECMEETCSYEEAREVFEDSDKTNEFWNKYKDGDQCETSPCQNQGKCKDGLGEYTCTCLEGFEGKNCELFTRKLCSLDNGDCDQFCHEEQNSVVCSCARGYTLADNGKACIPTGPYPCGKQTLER

The test concerns the target factor Xa (Homo sapiens, UniProt P00742). Nature of the test: Inhibition of factor Xa. In kind it is biochemical. The note with it: Affinity to receptors. From the text:
The inhibition of factor Xa by the compounds according to the invention and the measurement of the anticoagulant and antithrombotic activity can be determined by conventional in-vitro or in-vivo methods. A suitable method is described, for example, by J. Hauptmann et al. in Thrombosis and Haemostasis 1990, 63, 220-223.
The inhibition of factor Xa can be measured, for example by the method of T. Hara et al. in Thromb. Haemostas. 1994, 71, 314-319.
On to `CC(C)CN(Cc1cccc(C(=N)N)c1)C(=O)C(=O)Nc1ccc(-c2ccccc2S(N)(=O)=O)cc1` [Example 1, N-(3-amidinobenzyl)-N-isobutyl-N′-(2′-sulfamoylbiphenyl-4-yl)oxalamide], for which inhibition was half-maximal at 10 nM (IC50). With `CC(C)CN(Cc1cccc(C(=N)N)c1)C(=O)C(=O)Nc1ccc(-c2ccccc2S(=O)(=O)NC(C)(C)C)cc1` [Example 1g, N-(2′-tert-butylsulfamoylbiphenyl-4-yl)-N′-(3-amidinobenzyl)-N′-isobutyloxalamide] the figure was 300 nM. With `CC(C)CN(Cc1cccc(C(=N)N)c1)C(=O)C(=O)Nc1ccc(-c2ccccc2S(C)(=O)=O)cc1` [Example 3, N-(3-amidinobenzyl)-N-isobutyl-N′-(2′-methanesulfonylbiphenyl-4-yl)oxalamide] the figure was 9.6 nM. Regarding `COC(=O)NC(=N)c1cccc(CN(CC(C)C)C(=O)C(=O)Nc2ccc(-c3ccccc3S(C)(=O)=O)cc2)c1` [Example 4, Methyl [imino-(3-{[isobutyl-(2′-methanesulfonylbiphenyl-4-ylaminooxalyl)amino]methyl}phenyl)methyl]carbamate], 3500 nM corresponded to half-maximal inhibition (IC50). On to `CC(C)CN(Cc1cccc(C(=N)N)c1)C(=O)C(=O)Nc1ccc(-c2ccc(C(=N)N)cc2)cc1` [Example 5, N-(3-amidinobenzyl)-N′-(4′-amidinobiphenyl-4-yl)-N-isobutyloxalamide], for which the IC50 (in general, the concentration that gives 50% inhibition) was determined as 1000 nM. The same measure for `CC(C)CN(Cc1cccc(C(=N)N)c1)C(=O)C(=O)Nc1ccc(-c2ccc(CN)cc2)cc1` [Example 6, N-(4′-Aminomethylbiphenyl-4-yl)-N′-(3-amidinobenzyl)-N′-isobutyloxalamide]: 1500 nM; for `CC(C)CN(Cc1cccc(C(=O)O)c1)C(=O)C(=O)Nc1ccc(-c2ccccc2S(N)(=O)=O)cc1` [Example 7, 3-{[Isobutyl-(2′-sulfamoylbiphenyl-4-ylaminooxalyl)amino]methyl}benzoic acid]: 6000 nM.

For the origin of these results see patent US20040220411A1, “Oxalic acid derivatives” (priority 2001, published 2004).
